Assay results taken from patent EP1147102B1, “HETEROARYL ACETYLENIC SULFONAMIDE AND PHOSPHINIC ACID AMIDE HYDROXAMIC ACID TACE INHIBITORS” (Wyeth Holdings Corporation, priority 1999, dated 2000).

System: THP-1 cells
Assay: Human monocytic THP-1 cell differentiation assay for soluble proteins (THP soluble protein assay)
Assay type: cell-based
Details: LPS-stimulated THP-1 cells
Description: Mitogenic stimulation of THP-1 cells cause differentiation into macrophage like cells with concomitant secretion of tumor necrosis factor (TNF-α) and TNF receptor (TNF-R p75/80 and TNF-R p55/60) and Interleukin-8 (IL-8), among other proteins. In addition, non-stimulated THP-1 cells shed both the p75/80 and the p55/60 receptors over time. The release of membrane bound TNF-α and possibly TNF-R p75/80 and TNF-R p55/60, but not IL-8, is mediated by an enzyme called TNF-α converting enzyme or TACE.
THP-1 cells (from ATCC) are a human monocytic cell line which were obtained from the peripheral blood of a person with acute monocytic leukemia. […]
To perform an assay, the THP-1 cells are co-incubated in a 24 well plate with […] of a 24 mg/ml stock of Lipopolysacharide (LPS) (Calbiochem Lot# B13189) at 37°C in 5% CO2 at a concentration of 1.091 x 10^6 cells/ml (1.1 ml/well) for a total of 24 hours. […] Compounds can be evaluated for their effect on basal (non-stimulated) shedding of the receptors by replacing the LPS with […] of THP-1 media. […]
In addition, at the 24 hours timepoint, and the cells for each treatment group are collected by resuspension in 500 µl/well of THP-1 media and transferred into a FACS tube. […] The samples are run on a Becton Dickinson FaxCaliber FLOW cytometry machine and the amount of dye taken up by each cell is measured in the high red wavelength (FL3). […]

Compound: CC#CCOc1ccc(S(=O)(=O)N(C)c2c(C(=O)NO)cc(OC)nc2OC)cc1 [Example 33, 3-[Methyl-(4-but-2-ynyloxy-benzenesulfonyl)-amino]-N-hydroxy-2,6-dimethoxyisonicotinamide]
- inhibition at 3 µM: 31%
